# Measured values from ChEMBL document CHEMBL4602725 (J Med Chem, 2020).
# Assays:
# Histone deacetylase 1 [1] = target: T1, Histone deacetylase 1 (Homo sapiens, UniProt Q13547); assay: Inhibition of human recombinant HDAC1 pre-incubated for 30 mins before Ac-Leu- Gly-Lys(Ac)-AMC substrate addition and measured after 90 mins by fluorescence based assay
# A549 [2] = assay: Cytotoxicity against human A549 cells assessed as reduction in cell viability incubated for 72 hrs by MTT assay; conditions: A549, 72 h
# HT-29 [3] = assay: Cytotoxicity against human HT-29 cells assessed as reduction in cell viability incubated for 72 hrs by MTT assay; conditions: HT-29, 72 h
# HeLa [4] = assay: Cytotoxicity against human HeLa cells assessed as reduction in cell viability incubated for 72 hrs by MTT assay
# MDA-MB-231 [5] = assay: Cytotoxicity against human MDA-MB-231 cells assessed as reduction in cell viability incubated for 72 hrs by MTT assay; conditions: MDA-MB-231, 72 h
# MM96L [6] = assay: Cytotoxicity against human MM96L cells assessed as reduction in cell viability incubated for 72 hrs by MTT assay
# NFF [7] = assay: Cytotoxicity against human NFF cells assessed as reduction in cell viability incubated for 72 hrs by MTT assay
# NFF [8] = assay: Cytotoxicity against human NFF cells assessed as increase in intracellular caspase 3/7 release incubated for 72 hrs by Caspase-Glo 3/7 assay
# A549 [9] = assay: Cytotoxicity against human A549 cells assessed as increase in intracellular caspase 3/7 release incubated for 72 hrs by Caspase-Glo 3/7 assay; conditions: A549, 72 h
# HT-29 [10] = assay: Cytotoxicity against human HT-29 cells assessed as increase in intracellular caspase 3/7 release incubated for 72 hrs by Caspase-Glo 3/7 assay; conditions: HT-29, 72 h
# HeLa [11] = assay: Cytotoxicity against human HeLa cells assessed as increase in intracellular caspase 3/7 release incubated for 72 hrs by Caspase-Glo 3/7 assay
# MDA-MB-231 [12] = assay: Cytotoxicity against human MDA-MB-231 cells assessed as increase in intracellular caspase 3/7 release incubated for 72 hrs by Caspase-Glo 3/7 assay; conditions: MDA-MB-231, 72 h
# MM96L [13] = assay: Cytotoxicity against human MM96L cells assessed as increase in intracellular caspase 3/7 release incubated for 72 hrs by Caspase-Glo 3/7 assay
# Histone deacetylase 2 = Histone deacetylase 2 (Homo sapiens, UniProt Q92769); assay: Inhibition of human recombinant HDAC2 pre-incubated for 30 mins before Ac-Leu- Gly-Lys(Ac)-AMC substrate addition and measured after 90 mins by fluorescence based assay
# Histone deacetylase 3 = Histone deacetylase 3 (Homo sapiens, UniProt O15379); assay: Inhibition of human recombinant HDAC3 pre-incubated for 30 mins before Ac-Leu- Gly-Lys(Ac)-AMC substrate addition and measured after 90 mins by fluorescence based assay
# Histone deacetylase 8 = target: T2, Histone deacetylase 8 (Homo sapiens, UniProt Q9BY41); assay: Inhibition of human recombinant HDAC8 pre-incubated for 30 mins before Ac-Leu- Gly-Lys(Ac)-AMC substrate addition and measured after 90 mins by fluorescence based assay
# T2 sequence (Q9BY41 whole entry): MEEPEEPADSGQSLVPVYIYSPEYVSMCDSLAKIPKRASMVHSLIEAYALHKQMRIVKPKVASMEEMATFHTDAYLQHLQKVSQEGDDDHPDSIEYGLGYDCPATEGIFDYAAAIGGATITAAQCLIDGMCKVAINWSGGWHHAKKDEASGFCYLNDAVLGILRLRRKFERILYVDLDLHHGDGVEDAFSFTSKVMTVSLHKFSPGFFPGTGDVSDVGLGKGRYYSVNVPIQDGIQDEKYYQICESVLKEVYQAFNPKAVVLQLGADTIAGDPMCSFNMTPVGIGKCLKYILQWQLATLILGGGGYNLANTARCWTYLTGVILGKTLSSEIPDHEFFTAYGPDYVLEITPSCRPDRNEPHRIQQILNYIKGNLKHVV
# Histone deacetylase 1 [14] = target: T1, Histone deacetylase 1; assay: Inhibition of HDAC1 in human MM96L cells assessed as activation of histone H4 acetylation at Lys5, Lys8, Lys12 and Lys16 residues by Western blot analysis; format: cell-based
# Chain of Histone deacetylase 3 (O15379 whole entry): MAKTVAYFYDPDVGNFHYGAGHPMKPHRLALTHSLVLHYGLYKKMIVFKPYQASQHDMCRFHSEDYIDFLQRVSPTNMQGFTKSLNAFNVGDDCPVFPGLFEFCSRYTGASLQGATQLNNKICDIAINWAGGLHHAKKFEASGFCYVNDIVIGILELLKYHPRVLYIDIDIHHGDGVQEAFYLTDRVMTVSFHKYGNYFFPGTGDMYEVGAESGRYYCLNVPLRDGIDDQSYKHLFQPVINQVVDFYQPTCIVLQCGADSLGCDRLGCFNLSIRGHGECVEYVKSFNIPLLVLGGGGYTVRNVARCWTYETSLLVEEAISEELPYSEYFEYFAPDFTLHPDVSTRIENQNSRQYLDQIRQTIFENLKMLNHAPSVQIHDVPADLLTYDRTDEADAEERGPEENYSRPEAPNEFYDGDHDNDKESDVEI
# T1 sequence (Q13547 whole entry): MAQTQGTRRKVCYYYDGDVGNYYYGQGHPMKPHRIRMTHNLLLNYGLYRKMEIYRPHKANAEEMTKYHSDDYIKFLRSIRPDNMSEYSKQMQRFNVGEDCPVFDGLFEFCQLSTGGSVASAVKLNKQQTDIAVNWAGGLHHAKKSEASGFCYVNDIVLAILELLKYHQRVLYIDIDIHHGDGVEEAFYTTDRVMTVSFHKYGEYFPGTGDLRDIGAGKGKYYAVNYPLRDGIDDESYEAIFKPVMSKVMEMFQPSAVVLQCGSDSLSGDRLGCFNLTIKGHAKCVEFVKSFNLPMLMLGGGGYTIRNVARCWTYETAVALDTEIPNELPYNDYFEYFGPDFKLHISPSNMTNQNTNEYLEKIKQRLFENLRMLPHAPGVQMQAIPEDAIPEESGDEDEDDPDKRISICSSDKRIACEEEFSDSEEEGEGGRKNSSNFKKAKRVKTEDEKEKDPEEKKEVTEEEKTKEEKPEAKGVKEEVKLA
# Chain of Histone deacetylase 2 (Q92769 whole entry): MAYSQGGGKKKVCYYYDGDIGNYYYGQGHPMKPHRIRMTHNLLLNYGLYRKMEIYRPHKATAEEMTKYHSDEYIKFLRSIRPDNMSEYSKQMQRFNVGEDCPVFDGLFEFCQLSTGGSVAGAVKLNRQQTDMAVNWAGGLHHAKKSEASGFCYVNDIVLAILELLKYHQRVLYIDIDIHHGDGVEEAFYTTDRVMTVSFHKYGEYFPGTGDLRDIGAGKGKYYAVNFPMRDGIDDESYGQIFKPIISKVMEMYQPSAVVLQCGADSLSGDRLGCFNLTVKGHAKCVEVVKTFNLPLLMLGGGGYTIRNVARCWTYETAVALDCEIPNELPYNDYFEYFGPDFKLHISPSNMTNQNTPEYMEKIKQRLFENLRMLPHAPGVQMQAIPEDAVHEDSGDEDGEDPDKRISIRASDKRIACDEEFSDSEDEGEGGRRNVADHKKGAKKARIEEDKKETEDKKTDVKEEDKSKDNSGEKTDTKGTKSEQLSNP
compound,measurement,setting,value
Nc1cccc(-c2ccc(C3(C(=O)Nc4ccc(C(=O)NO)cc4)CCCC3)cc2)c1,IC50,Histone deacetylase 1 [1],4 nM
O=C(NO)c1ccc(NC(=O)C2(c3ccccc3)CCOCC2)cc1,IC50,Histone deacetylase 1 [1],28 nM
O=C(NO)c1ccc(NC(=O)C2(c3c[nH]c(-c4ccc([N+](=O)[O-])cc4)n3)CCCC2)cc1,IC50,Histone deacetylase 1 [1],6 nM
O=C(NO)c1ccc(NC(=O)C2(c3csc(-c4ccccc4Oc4ccccc4)n3)CCCC2)cc1,IC50,Histone deacetylase 1 [1],431 nM
CC(C)C(C(=O)Nc1ccc(C(=O)NO)cc1)c1ccccc1 (racemic),IC50,A549 [2],1500 nM
same,IC50,HT-29 [3],600 nM
same,IC50,HeLa [4],700 nM
same,IC50,MDA-MB-231 [5],1500 nM
same,IC50,MM96L [6],300 nM
same,IC50,NFF [7],500 nM
same,EC50,NFF [8],24300 nM
same,EC50,A549 [9],15600 nM
same,EC50,HT-29 [10],1700 nM
same,EC50,HeLa [11],8100 nM
same,EC50,MDA-MB-231 [12],2400 nM
same,EC50,MM96L [13],900 nM
O=C(NO)c1ccc(NC(=O)C2(c3ccc4ccccc4c3)CCOCC2)cc1,IC50,Histone deacetylase 2,8 nM
same,IC50,Histone deacetylase 3,2 nM
same,IC50,Histone deacetylase 8,44 nM
same,IC50,A549 [2],100 nM
same,IC50,HT-29 [3],40 nM
same,IC50,HeLa [4],30 nM
same,IC50,MDA-MB-231 [5],100 nM
same,IC50,MM96L [6],20 nM
same,IC50,NFF [7],400 nM
same,EC50,NFF [8],4300 nM
same,EC50,A549 [9],2600 nM
same,EC50,HT-29 [10],200 nM
same,EC50,HeLa [11],700 nM
same,EC50,MDA-MB-231 [12],300 nM
same,EC50,MM96L [13],60 nM
same,inhibition,Histone deacetylase 1 [14],Dose-dependent effect
O=C(NO)c1ccc(NC(=O)C2(c3ccc(Br)cc3)CCOCC2)cc1,IC50,Histone deacetylase 1 [1],2 nM
same,IC50,Histone deacetylase 2,17 nM
same,IC50,Histone deacetylase 3,4 nM
same,IC50,Histone deacetylase 8,59 nM
same,EC50,Histone deacetylase 1 [14],600 nM
same,inhibition,Histone deacetylase 1 [14],Dose-dependent effect
O=C(NO)c1ccc(NC(=O)C2(c3ccc(C(F)(F)F)c(F)c3)CCCC2)cc1,IC50,Histone deacetylase 1 [1],227 nM
Nc1ccc(C2(C(=O)Nc3ccc(C(=O)NO)cc3)CCOCC2)cc1,IC50,Histone deacetylase 1 [1],22 nM
O=C(NO)c1ccc(NC(=O)C2(c3ccc4ccccc4c3)CCCCC2)cc1,IC50,Histone deacetylase 1 [1],43 nM
O=C(NO)c1ccc(NC(=O)C2(c3ccc([N+](=O)[O-])cc3)CCOCC2)cc1,IC50,Histone deacetylase 1 [1],9 nM
O=C(NO)c1ccc(NC(=O)C2(c3ccc(Cl)cc3)CCCC2)cc1,IC50,Histone deacetylase 1 [1],12 nM
O=C(NO)c1ccc(NC(=O)C2(c3c[nH]c4ccccc34)CCCC2)cc1,IC50,Histone deacetylase 1 [1],23 nM
COc1ccc(C2(C(=O)Nc3ccc(C(=O)NO)cc3)CCCCC2)cc1-c1cccc(N)c1,IC50,Histone deacetylase 1 [1],10 nM
COc1ccc(C2(C(=O)Nc3ccc(C(=O)NO)cc3)CCCCC2)cc1OC,IC50,Histone deacetylase 1 [1],29 nM
COc1ccc(C2(C(=O)Nc3ccc(C(=O)NO)cc3)CCCCC2)cc1-c1ccccc1NC(C)=O,IC50,Histone deacetylase 1 [1],9 nM
O=C(NO)c1ccc(NC(=O)C2(c3ccc(F)cc3)CCCC2)cc1,IC50,Histone deacetylase 1 [1],41 nM
O=C(NO)c1ccc(NC(=O)C2(c3ccccc3)CCCC2)cc1,IC50,Histone deacetylase 1 [1],28 nM
O=C(NO)c1ccc(NC(=O)C2(c3ccc(-c4cccnc4)cc3)CCCC2)cc1,IC50,Histone deacetylase 1 [1],5 nM
O=C(NO)c1ccc(NC(=O)C2(c3ccc(-c4cn[nH]c4)cc3)CCOCC2)cc1,IC50,Histone deacetylase 1 [1],2 nM
CC(=O)Nc1cccc(-c2ccc(C3(C(=O)Nc4ccc(C(=O)NO)cc4)CCCC3)cc2)c1,IC50,Histone deacetylase 1 [1],5 nM
O=C(NO)c1ccc(NC(=O)C2(c3ccccc3)CCCC2)nc1,IC50,Histone deacetylase 1 [1],132 nM
CCCC(CCC)C(=O)Nc1ccc(C(=O)NO)cc1,IC50,Histone deacetylase 1 [1],738 nM
COc1cccc(-c2nc(C3(C(=O)Nc4ccc(C(=O)NO)cc4)CCCC3)cs2)c1,IC50,Histone deacetylase 1 [1],15 nM
O=C(NO)c1ccc(NC(=O)C2(c3ccc(-c4cn[nH]c4)cc3)CCCC2)cc1,IC50,Histone deacetylase 1 [1],3 nM
CC(C)C(C(=O)Nc1ccc(C(=O)NO)c(Cl)c1)c1ccccc1 (racemic),IC50,Histone deacetylase 1 [1],8680 nM
O=C(O)c1cccc(-c2ccc(C3(C(=O)Nc4ccc(C(=O)NO)cc4)CCCC3)cc2)c1,IC50,Histone deacetylase 1 [1],2 nM
same,IC50,Histone deacetylase 2,13 nM
same,IC50,Histone deacetylase 3,7 nM
same,IC50,Histone deacetylase 8,118 nM
same,IC50,A549 [2],> 100000 nM
same,IC50,HT-29 [3],> 100000 nM
same,IC50,HeLa [4],> 100000 nM
same,IC50,MDA-MB-231 [5],> 100000 nM
same,IC50,MM96L [6],> 100000 nM
same,EC50,A549 [9],> 100000 nM
same,EC50,HT-29 [10],> 100000 nM
same,EC50,HeLa [11],> 100000 nM
same,EC50,MDA-MB-231 [12],> 100000 nM
same,EC50,MM96L [13],> 100000 nM
CC(C)C(C(=O)Nc1ccc(C(=O)Nc2ccccc2N)cc1)c1ccccc1 (racemic),IC50,Histone deacetylase 1 [1],231 nM
O=C(NO)c1ccc(NC(=O)C2(c3csc(-c4ccccc4)n3)CCCC2)cc1,IC50,Histone deacetylase 1 [1],12 nM
CC(=O)Nc1ccccc1-c1ccc(C2(C(=O)Nc3ccc(C(=O)NO)cc3)CCCC2)cc1,IC50,Histone deacetylase 1 [1],0.94 nM
CC(C)C(C(=O)N(C)c1ccc(C(=O)NO)cc1)c1ccccc1 (racemic),IC50,Histone deacetylase 1 [1],439 nM
